Read-outs that look alike come from different tables or passages of the source.
Assays:
recombinant human AKR1C1 = target: T1, recombinant human AKR1C1 (Homo sapiens, UniProt Q04828); assay: Incubation of 3424 with AKR1C1 (2660 production, LC-MS/MS); assay type: biochemical
T1 construct: purchased Sigma

SNU-475 = assay: In vitro proliferation assay, liver cancer cell line SNU-475; assay type: cell-based; conditions: Homo sapiens, 96 hours of drug exposure, AKR1C3 protein high, read-out: 3424 IC50
Procedure: (§1) IC50 was calculated as described above.

SNU-449 = assay: In vitro proliferation assay, liver cancer cell line SNU-449; assay type: cell-based; conditions: Homo sapiens, 96 hours of drug exposure, AKR1C3 protein high, read-out: 3424 IC50
Procedure: as §1

C3A = assay: In vitro proliferation assay, liver cancer cell line C3A; assay type: cell-based; conditions: Homo sapiens, 96 hours of drug exposure, AKR1C3 protein high, read-out: 3424 IC50
Procedure: as §1

SNU-387 = assay: In vitro proliferation assay, liver cancer cell line SNU-387; assay type: cell-based; conditions: Homo sapiens, 96 hours of drug exposure, AKR1C3 protein Medium, read-out: 3424 IC50
Procedure: as §1

PLC/PRF/5 = assay: In vitro proliferation assay, liver cancer cell line PLC/PRF/5; assay type: cell-based; conditions: Homo sapiens, 96 hours of drug exposure, AKR1C3 protein Medium, read-out: 3424 IC50
Procedure: as §1

HLE = assay: In vitro proliferation assay, liver cancer cell line HLE; assay type: cell-based; conditions: Homo sapiens, 96 hours of drug exposure, AKR1C3 protein Medium, read-out: 3424 IC50
Procedure: as §1

HuCCT1 = assay: In vitro proliferation assay, liver cancer cell line HuCCT1; assay type: cell-based; conditions: Homo sapiens, HuCCT-1, 96 hours of drug exposure, AKR1C3 protein Low, read-out: 3424 IC50
Procedure: as §1

SNU-182 = assay: In vitro proliferation assay, liver cancer cell line SNU-182; assay type: cell-based; conditions: Homo sapiens, 96 hours of drug exposure, AKR1C3 protein Low, read-out: 3424 IC50
Procedure: as §1

SK-HEP-1 = assay: In vitro proliferation assay, liver cancer cell line SK-HEP-1; assay type: cell-based; conditions: Homo sapiens, SK-HEP1, 96 hours of drug exposure, AKR1C3 protein Low, read-out: 3424 IC50
Procedure: as §1

NCI-H1944 = assay: In vitro proliferation assay, NSCLC cell line NCI-H1944; assay type: cell-based; conditions: Homo sapiens, 72 hours of drug exposure, read-out: 3424 IC50
Procedure: as §1

NCI-H2228 = assay: In vitro proliferation assay, NSCLC cell line NCI-H2228; assay type: cell-based, human
Procedure: as §1

NCI-H1563 = assay: In vitro proliferation assay, NSCLC cell line NCI-H1563; assay type: cell-based; conditions: Homo sapiens, 72 hours of drug exposure, read-out: 3424 IC50
Procedure: as §1

NCI-H2110 = assay: In vitro proliferation assay, NSCLC cell line NCI-H2110; assay type: cell-based; conditions: Homo sapiens, 72 hours of drug exposure, read-out: 3424 IC50
Procedure: as §1

NCI-H1792 = assay: In vitro proliferation assay, NSCLC cell line NCI-H1792; assay type: cell-based; conditions: Homo sapiens, 72 hours of drug exposure, read-out: 3424 IC50
Procedure: as §1

CAL12T = assay: In vitro proliferation assay, NSCLC cell line CAL12T; assay type: cell-based; conditions: Homo sapiens, CAL-12T, 72 hours of drug exposure, read-out: 3424 IC50
Procedure: as §1

NCIH2106 = assay: In vitro proliferation assay, NSCLC cell line NCIH2106; assay type: cell-based; conditions: Homo sapiens, 72 hours of drug exposure, read-out: 3424 IC50
Procedure: as §1

NCI-H23 = assay: In vitro proliferation assay, NSCLC cell line NCI-H23; assay type: cell-based; conditions: Homo sapiens, 72 hours of drug exposure, read-out: 3424 IC50
Procedure: as §1

NCI-H522 = assay: In vitro proliferation assay, NSCLC cell line NCI-H522; assay type: cell-based; conditions: Homo sapiens, 72 hours of drug exposure, read-out: 3424 IC50
Procedure: as §1

VCaP xenograft = assay: Castration-resistant prostate cancer VCaP xenograft model
Procedure: (§2) Death and observed clinical signs were recorded on the basis of the numbers of animals within each subset.

A498 xenograft = test system: A498 xenograft
Procedure: as §2

SNU-16 xenograft = test system: SNU-16 xenograft
Procedure: as §2

PA1280 PDX = assay: Pancreatic cancer PDX model PA1280; assay type: in vivo, mice
Procedure: (§3) Anti-tumor activity of 3424 in PDX models was assessed at CrownBio Bioscience (Beijing, China) Inc. using female BALB/c nude mice (6-7 weeks old, Beijing Anikeeper Biotech Co., Ltd, Beijing, China). Tumor fragments (PA1280, GA6201, LU2057 and LU2505) from stock mice inoculated with selected primary human cancer tissues (pancreatic, gastric cancer, and lung) were harvested and used for inoculation into BALB/c nude mice. Each mouse was inoculated subcutaneously for tumor development. Mice were allocated randomly into experimental groups when the average tumor size reached ˜100 mm^3) by using StudyDirector™ Ver 3.1.399.19 (Studylog Systems, Inc., S. San Francisco, CA, USA). Prodrug 3424 was administered IV at the indicated doses with a regimen of Q7D×3. Each group consisted of 5-6 mice. The grouping day was denoted as Day 0. Prodrug 3424 was administrated to the tumor-bearing mice from Day 0 through Days as indicated for each study.

GA6201 PDX = assay: Gastric cancer PDX model GA6201; assay type: in vivo, mice
Procedure: as §3

LU2057 PDX = assay: Lung cancer PDX model LU2057 (low AKR1C3); assay type: in vivo, mice
Procedure: as §3

LU2505 PDX = assay: Lung cancer PDX model LU2505 (higher AKR1C3); assay type: in vivo, mice
Procedure: as §3

H460 cells = assay: Cytotoxicity in H460 cells in the absence or presence of AKR1C3 inhibitor 3021; conditions: Homo sapiens, NCI-H460, 2 h, read-out: IC50 (cytotoxicity)
Procedure: Exponentially growing cells were seeded 24 hours before the addition of test compounds. After addition of test compounds, the plates were incubated for the indicated hours at 37° C. in a standard tissue culture incubator. At the end of the experiment, the viable cells were detected using either a CellTiter Glo (CTG) assay kit or AlamarBlue^(28,29). […] For 3021 experiments, cells were pretreated with 3 μM of 3021 for 2 h prior to compound treatment under air. IC50 was calculated as described above.

[1] = 3424 2.5 mg/kg weekly IV for 4 doses

T1 sequence (Q04828 whole entry): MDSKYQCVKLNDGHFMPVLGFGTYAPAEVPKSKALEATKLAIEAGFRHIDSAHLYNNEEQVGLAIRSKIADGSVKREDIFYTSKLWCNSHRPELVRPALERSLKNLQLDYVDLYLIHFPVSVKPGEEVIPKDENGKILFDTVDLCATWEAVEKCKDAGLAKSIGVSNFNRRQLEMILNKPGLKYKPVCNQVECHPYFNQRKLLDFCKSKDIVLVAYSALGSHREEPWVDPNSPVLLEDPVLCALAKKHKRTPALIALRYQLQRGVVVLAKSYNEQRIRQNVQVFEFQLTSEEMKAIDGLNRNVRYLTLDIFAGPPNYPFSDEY

C[C@H](OP(=O)(N1CC1)N1CC1)c1ccc([N+](=O)[O-])c(Oc2cccc(C(=O)N(C)C)c2)c1 [Compound 3424, (S)-1-(3-(3-N,N-dimethylaminocarbonyl)phenoxyl-4-mtrophenyl)-1-ethyl-N,N′-bis(ethylene)phosphoramidate]
metabolism by AKR1C1 (recombinant human AKR1C1): not metabolized
2660 Concentration (recombinant human AKR1C1; 3424 concentration 50 μM, incubation with AKR1C1, BQL: below quantification limit (0.25 ng/mL)): BQL
IC50 (SNU-475): 15 nM
IC50 (SNU-449): 45 nM
IC50 (C3A): 5 nM
IC50 (SNU-387): 103 nM
IC50 (PLC/PRF/5): 167 nM
IC50 (HLE): 113 nM
IC50 (HuCCT1): 696 nM
IC50 (SNU-182): > 1000 nM
IC50 (SK-HEP-1): > 1000 nM
IC50 (NCI-H1944): 2.3 nM
IC50 (NCI-H2228; Homo sapiens, NCI-H2228, 72 hours of drug exposure, read-out: 3424 IC50): 0.21 nM
enhanced cytotoxicity in line expressing high AKR1C3 versus low/no AKR1C3 (NCI-H2228; NCI-H2228 NSCLC line): up to 5000 fold
IC50 (NCI-H1563): 2.5 nM
IC50 (NCI-H2110): 1.1 nM
IC50 (NCI-H1792): 4.5 nM
IC50 (CAL12T): 29.1 nM
IC50 (NCIH2106): > 1000 nM
IC50 (NCI-H23): > 1000 nM
IC50 (NCI-H522): > 1000 nM
TGI (VCaP xenograft; 3424 5 mg/kg weekly IV for 5 doses, castrated male BALB/c nude mice): 148%
tolerability / body weight loss during treatment (VCaP xenograft; VCaP model, data not shown): no significant body weight loss
TGI (A498 xenograft; [1]): 73%
tolerability / body weight loss during treatment (A498 xenograft; A498 model, data not shown): no significant body weight loss
TGI (SNU-16 xenograft; [1]): 87.8%
TGI (SNU-16 xenograft; 3424 5 mg/kg weekly IV for 4 doses): 96.2%
tolerability / body weight loss during treatment (SNU-16 xenograft; SNU-16 model, data not shown): no significant body weight loss
TGI (PA1280 PDX; 3424 2.5 mg/kg i.v. Q7D × 3): 77.4%
tolerability / body weight loss (PA1280 PDX; PA1280, all tested doses): no body weight loss
TGI (GA6201 PDX; 3424 5 mg/kg i.v. Q7D × 3): 110%
mice remaining tumor free (GA6201 PDX; 3424 5 mg/kg, at the end of the study): 60%
tolerability / body weight loss (GA6201 PDX; GA6201, all tested doses): no body weight loss
TGI (LU2057 PDX; 3424 2.5 mg/kg i.v. Q7D × 3): −20.9%
tolerability / body weight loss (LU2057 PDX; LU2057, all tested doses): no body weight loss
TGI (LU2505 PDX; 3424 1.25 mg/kg i.v. Q7D × 3): 105.0%
TGI (LU2505 PDX; 3424 2.5 mg/kg i.v. Q7D × 3): 105.2%
TGI (LU2505 PDX; 3424 5 mg/kg i.v. Q7D × 3): 105.2%
tolerability / body weight loss (LU2505 PDX; LU2505, all tested doses): no body weight loss
IC50 (H460 cells): 4 nM

— patent US20240316079A1, “USE OF AKR1C3-ACTIVATED COMPOUND” (OBI PHARMA, INC., priority 2021, published 2024)
